We go through three molecules from patent US7271260B2, “3,4-dihydroquinazoline derivatives as T-type calcium channel blockers and method of preparing the same” (Korea Institute of Science and Technology, priority 2004, dated 2007).

Like-named read-outs stand apart in the source and are kept apart here.

For orientation: IC50 means the concentration that gives 50% inhibition.

One experiment deals with Na+ channel. Description: Patch clamp of sodium current in MPG (major pelvic ganglion) neurons. To be noted: MPG neuron, 10 μM; for selectivity for the calcium channel versus the sodium channel: from Table 3; for Inhibitory effect, Na+ channel: n.i. = no inhibitory effect. It counts as cell-based, rat. As to the method: In order to examine the selectivity of the compound of the present invention for other ion channels, the inhibitory effects of KYS05001, KYS05041 and KYS05042 on […] and high voltage-activated Ca2+ channel (HVA) were measured according to a conventional method (Lee, J.-H. et al., J. Neurophysiol. 2002, 87, 2844-2850) using MPG (major pelvic ganglion).
Male Sprague-Dawley rats having about 250 g of an average body weight were employed as experimental animals. After the rats were anesthetized with sodium pentobarbital (50 mg/kg, i.p.), the abdomen was cut open immediately. MPG located on the left side of the prostate was extracted and then transferred in cold (4° C.) Hank's balanced salt solution (HBSS, GibcoBRL). The connective tissue encompassing the ganglion was stripped therefrom and a small gap was made carefully on the naked ganglion with a sharp knife. Then, the ganglion was cultured in 10 ml of modified Earle's balanced salt solution (EBSS, pH 7.4, GibcoBRL) supplemented with 0.7 mg/ml of collagenase (type D), 0.3 mg/ml of trypsin and 0.1 mg/ml of DNAse type I at 35° C. for 1 hour (Zhu et al., J. Physiol. Lond. 1995, 489, 363-375). At this time, 3.6 g/l of glucose and 10 mM HEPES were added to EBSS. After the cultivation was completed, the culture flask was shaken to separate call clusters into a single nerve cell and subjected to centrifugation at 1000 rpm with a clinical centrifuge (International Equipment Company, Mass., U.S.A.). The separated single nerve cells were re-suspended in MEM (GibcoBRL) supplemented with 10% fetal bovine serum, 1% glutamine and 1% penicillin/streptomycin. They were then spread on a polystyrene culture dish (35 mm) coated with poly-L-lysine. The culture dish was incubated at 37° C. humidified incubator (95% air-5% CO2) and the cells were used in the following experiment within 24 hours after the separation.
The voltage-dependent calcium and sodium current were recorded according to a typical patch clamping method using a patch clamp amplifier (Axopatch 1D, Axon Instruments, Foster City, Calif., U.S.A.) at a whole-cell ruptured configuration (Hamill et al., Pflügers Arch. 1981, 391, 85-100). An electrode was made from a borosilicate glass capillary tube (outer diameter; 1.65 mm, inner diameter; 1.2 mm, Corning 7052, Garner Glass Co., Claremont, Calif., U.S.A.) using P-97 Flaming-Brown micropipette puller (Sutter Instrument Co., Novato, Calif., U.S.A.) and forged smoothly by heating with a microforge. The electrode showing 1˜3 MΩ of resistance when filled with a solution was used for the following experiment. The culture dish containing the nerve cells was placed on an inverted microscope and the cell exterior solution was flowed into the dish at a flow rate of about 1˜2 ml/min. The membrane capacitance and series resistance were corrected by 80% or more with an amplifier. The voltage generation and record of calcium current were carried out using S4 software (provided by Dr. Stephen R. Ikeda, National Institute on Alcohol Abuse and Alcoholism, NIH, USA) equipped in Macintosh computer, which was connected to an analogue/digital converter (Digidata 1200, Axon Instruments Co.). The calcium current, which passed through a low band pass filter at 2˜5 kHz, was stored in Macintosh computer and analyzed with IGOR PRO (Wave-Metrics, Lake Oswego, Oreg., U.S.A.). All the experiments were conducted at a room temperature ranging from 20 to 22° C.
The electrode for measuring the calcium current was filled with the solution comprising 120 mM N-methyl-D-glucamine (NMG) methanesulfonate (MS), 20 mM tetraethylammonium (TEA)-MS, 20 mM HCl, 11 mM EGTA, 10 mM HEPES, 1 mM CaCl2, 4 mM MgATP, 0.3 mM Na2GTP and 14 mM tris-phosphocreatine (pH 7.2, 290 mOsm). The extracellular infusion fluid was composed of 140 mM MS, 145 mM TEA-OH, 10 mM HEPES, 15 mM glucose, 10 mM CaCl2 and 0.0003 mM tetrodotoxin (TTX, pH 7.4, 320 mOsm). […]
(Patch clamp records ionic current or voltage across a cell membrane.)

Experiment [1] deals with T1, α1G T-type calcium channel (Rattus norvegicus, UniProt O54898).
T1 construct: expressed in transfected cells; Perez-Reyes, University of Virginia
In words: Whole cell patch clamp on HEK 293 cells expressing α1G T-type calcium channel. It counts as cell-based. The note with it: for inhibition at 10 µM: HEK293; for channel inhibitory effect relative to Mibefradil (comparing IC50 values): HEK 293 cells (α1G), IC50 compared with Mibefradil; for IC50: read-out: IC50, HEK293 cells (α1G). The method, then:
HEK 293 cells were cultured in Dulbecco's modified Eagle's medium (DMEM) supplemented with 10% fetal bovine serum (FBS) and 1% penicillin/streptomycin (v/v) in 36.5° C. humidified incubator (95% air-5% CO2). The culture solution was replaced with a fresh medium every 3 to 4 days and the cultured cells were subjected to sub-culture every week. At this time, the culture solution was treated with G-418 (0.5 mg/ml) solution so that only HEK 293 cells expressing α1G T-type calcium channel can grow. The cells used for the T-type calcium channel activity assay were cultured on a cover slip coated with poly-L-lysine (0.5 mg/ml) whenever sub-cultured and their calcium channel activity was recorded 2 to 7 days after the cultivation. The current of the T-type calcium channel at a single cell level was measured according to an electrophysiological whole cell patch clamping method using EPC-9 amplifier (HEKA, German). At this time, a cell exterior solution [140 mM NaCl, 2 mM CaCl2, 10 mM HEPES (pH 7.4)] and a cell interior solution [KCl 130 mM, HEPES 10 mM, EGTA 11 mM, MgATP 5 mM (pH 7.4)] were employed. The inward current caused by the T-type calcium channel activation was measured according to a T-type calcium channel protocol activated at low current. Such current occurs when the cells were converted into a whole-cell recording mode by stabbing a microglass electrode having 3-4 MΩ resistance, which was filled with the cell interior solution into a single cell and depolarized at −30 mV (50 ms duration period) every 10 seconds with fixing membrane potential to −100 mV.
In order to confirm whether the cells and methods used in Test Example 2 are a suitable screening system for selecting T-type calcium channel blockers, the results obtained in Example 2 were compared with those of α1G T-type calcium channel study reported in a public document (Monteil, A. et al., J. Biol. Chem. 275, 6090-6100, 2000). […] Thus, the candidate compounds were subjected to a test for their inhibitory effects on the T-type calcium channel according to the screening system of the present invention, as follows. Each compound was dissolved in 100% dimethylsulfoxide (DMSO) to prepare 10 mM stock solution. The inhibitory effect on the T-type calcium channel current was examined in 10 μM sample solution (containing 0.1% DMSO) prepared by diluting the stock solution by 1000-fold. The cells were treated with each compound at a concentration of 10 μM for 30 to 60 sec with the cell exterior solution.

Setting [2] is: HEK 293 cells expressing α1G, 30 to 60 sec treatment, read-out: inhibitory effect on peak current, HEK293 cells (α1G) at 10 μM.
The mark [3] stands for this setting: Table 3 title says MPG neuron, values equal HEK 293 (α1G) values of Table 2, read-out: Inhibitory effect, Ca2+ channel T-type (LVA).

T1 sequence (O54898 whole entry): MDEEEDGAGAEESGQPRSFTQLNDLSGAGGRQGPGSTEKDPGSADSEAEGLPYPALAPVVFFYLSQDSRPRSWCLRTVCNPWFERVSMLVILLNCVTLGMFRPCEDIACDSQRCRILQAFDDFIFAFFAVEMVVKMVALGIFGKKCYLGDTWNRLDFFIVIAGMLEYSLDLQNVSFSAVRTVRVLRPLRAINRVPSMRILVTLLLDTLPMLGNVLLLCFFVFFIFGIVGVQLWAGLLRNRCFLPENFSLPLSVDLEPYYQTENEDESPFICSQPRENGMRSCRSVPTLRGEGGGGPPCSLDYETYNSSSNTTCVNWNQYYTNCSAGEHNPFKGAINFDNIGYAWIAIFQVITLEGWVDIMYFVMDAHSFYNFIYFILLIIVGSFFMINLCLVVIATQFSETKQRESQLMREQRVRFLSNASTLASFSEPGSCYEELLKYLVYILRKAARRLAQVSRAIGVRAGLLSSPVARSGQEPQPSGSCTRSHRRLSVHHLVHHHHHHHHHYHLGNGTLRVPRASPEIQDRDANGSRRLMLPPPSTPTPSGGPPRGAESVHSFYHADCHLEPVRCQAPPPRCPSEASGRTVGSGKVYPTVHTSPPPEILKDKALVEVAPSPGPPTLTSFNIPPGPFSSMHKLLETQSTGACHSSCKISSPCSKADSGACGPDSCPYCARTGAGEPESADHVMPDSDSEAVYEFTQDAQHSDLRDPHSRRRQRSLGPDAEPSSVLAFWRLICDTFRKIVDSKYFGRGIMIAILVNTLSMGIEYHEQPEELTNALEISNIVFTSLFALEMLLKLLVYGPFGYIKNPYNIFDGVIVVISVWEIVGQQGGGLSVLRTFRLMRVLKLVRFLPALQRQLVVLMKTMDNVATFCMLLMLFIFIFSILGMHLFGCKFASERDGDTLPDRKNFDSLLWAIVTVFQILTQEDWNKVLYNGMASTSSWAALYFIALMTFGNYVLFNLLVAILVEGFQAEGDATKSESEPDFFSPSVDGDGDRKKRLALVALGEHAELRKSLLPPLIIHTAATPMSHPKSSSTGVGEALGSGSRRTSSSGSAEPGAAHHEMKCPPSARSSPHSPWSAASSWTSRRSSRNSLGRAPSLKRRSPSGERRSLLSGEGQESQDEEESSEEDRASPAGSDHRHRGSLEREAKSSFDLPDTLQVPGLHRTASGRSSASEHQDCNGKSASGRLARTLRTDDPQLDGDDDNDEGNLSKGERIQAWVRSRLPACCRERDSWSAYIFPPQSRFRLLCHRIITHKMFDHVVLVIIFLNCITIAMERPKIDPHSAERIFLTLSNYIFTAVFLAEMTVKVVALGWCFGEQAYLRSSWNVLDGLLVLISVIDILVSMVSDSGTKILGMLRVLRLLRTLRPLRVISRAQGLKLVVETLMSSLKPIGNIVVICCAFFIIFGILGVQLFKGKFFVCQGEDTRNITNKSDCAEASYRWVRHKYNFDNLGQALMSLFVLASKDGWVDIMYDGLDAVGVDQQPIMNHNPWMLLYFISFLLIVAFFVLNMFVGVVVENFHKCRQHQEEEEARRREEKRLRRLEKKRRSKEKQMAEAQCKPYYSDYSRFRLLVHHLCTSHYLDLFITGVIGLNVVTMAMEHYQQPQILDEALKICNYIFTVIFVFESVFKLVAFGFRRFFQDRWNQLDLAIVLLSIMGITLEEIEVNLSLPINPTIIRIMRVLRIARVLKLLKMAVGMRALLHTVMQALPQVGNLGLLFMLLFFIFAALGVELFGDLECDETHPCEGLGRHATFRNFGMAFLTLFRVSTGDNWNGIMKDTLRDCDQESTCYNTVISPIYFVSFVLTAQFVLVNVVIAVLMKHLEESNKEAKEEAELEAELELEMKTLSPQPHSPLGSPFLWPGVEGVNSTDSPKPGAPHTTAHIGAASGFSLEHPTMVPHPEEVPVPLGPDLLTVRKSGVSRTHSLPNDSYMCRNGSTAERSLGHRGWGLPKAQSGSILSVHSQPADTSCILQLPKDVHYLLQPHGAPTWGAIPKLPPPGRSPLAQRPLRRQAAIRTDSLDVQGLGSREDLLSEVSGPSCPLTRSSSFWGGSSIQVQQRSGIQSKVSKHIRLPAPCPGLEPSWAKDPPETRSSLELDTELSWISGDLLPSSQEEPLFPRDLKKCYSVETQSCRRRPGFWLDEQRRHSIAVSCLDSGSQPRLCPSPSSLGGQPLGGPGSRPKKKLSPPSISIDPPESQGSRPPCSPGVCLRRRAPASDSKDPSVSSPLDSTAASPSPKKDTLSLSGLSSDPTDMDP

For the molecule `Cc1ccc(S(=O)(=O)Nc2ccc(CNC(=O)CC3c4ccccc4N=C(N4CCCCC4)N3c3ccccc3)cc2)cc1` (stereo not drawn) [KYS05041, 4-{N-[4-(4-methylbenzenesulfonylamido)benzyl]acetamido}-3-phenyl-2-(piperidine-1-yl)-3,4-dihydroquinazoline], in the experiment on Na+ channel, the “selectivity for the calcium channel versus the sodium channel” value is “higher selectivity for the calcium channel than the sodium channel” and the “Inhibitory effect, Na+ channel” value was “n.i.^b”. Besides, the inhibition at 10 µM in experiment [1] (setting [2]) was 89.9%. Also, in experiment [1] (setting [3]), the inhibition at 10 µM is 89.9%. Besides, in experiment [1], the “channel inhibitory effect relative to Mibefradil (comparing IC50 values)” value is given as “about 3.4 fold”. In experiment [1] (HEK 293 cells expressing α1G), the IC50 is 250 nM.
Turning to `O=C(CC1c2ccccc2N=C(N2CCCCC2)N1c1ccccc1)NCc1ccccc1` (stereo not drawn) [KYS05001], in the experiment with Na+ channel, the “selectivity for the calcium channel versus the sodium channel” value is reported as “higher selectivity for the calcium channel than the sodium channel” and the “Inhibitory effect, Na+ channel” value is “n.i.^b”. Moreover, the inhibition at 10 µM in experiment [1] (setting [2]) was found to be 90.1%. Besides, in experiment [1] (setting [3]), the inhibition at 10 µM amounted to 90.1%. In experiment [1], the “channel inhibitory effect relative to Mibefradil (comparing IC50 values)” value is reported as “almost the same calcium channel inhibitory effect as Mibefradil”. The 50% inhibitory concentration (IC50) in experiment [1] (HEK 293 cells expressing α1G) stood at 900 nM.
As to `O=C(CC1c2ccccc2N=C(N2CCCCC2)N1c1ccccc1)NCc1ccc(NS(=O)(=O)c2ccc(F)cc2)cc1` (stereo not drawn) [KYS05042, 4-{N-[4-(4-fluorobenzenesulfonylamido)benzyl]acetamido}-3-phenyl-2-(piperidine-1-yl)-3,4-dihydroquinazoline], the “selectivity for the calcium channel versus the sodium channel” value with Na+ channel is on record as “higher selectivity for the calcium channel than the sodium channel”. In addition, the “Inhibitory effect, Na+ channel” value with Na+ channel is reported as “n.i.^b”. The inhibition at 10 µM in experiment [1] (setting [2]) and in experiment [1] (setting [3]) was 89% each time. In addition, the “channel inhibitory effect relative to Mibefradil (comparing IC50 values)” value in experiment [1] was about 4.2 fold. Also, the IC50 in experiment [1] (HEK 293 cells expressing α1G) was 200 nM.
